Measurements taken from patent US4742053A, “3-Isoquinoliniomethyl cephalosporin derivatives” (Banyu Pharmaceutical Co., Ltd., priority 1984, dated 1988).
Values after ≈ are worked out from the molar mass of the structure shown. Where two headings read alike, the source gives them in different places.

Legend:
Assay in all cases: MIC by agar plate dilution method
Type in all cases: cell-based
[1] = test system: E. coli CSH; details: 10^6 CFU/ml; for MIC: Escherichia coli, read-out: Minimum Inhibitory Concentration
Experimental: (§1) The minimum inhibitory concentrations (MIC: μg/ml) of the compounds of the present invention against various microorganisms were measured by an agar plate dilution method (inoculum size: 10^6 CFU/ml) by using Sensitivity Disk Agar (Nissui) in comparison with Cefotaxime and Ceftazidime as comparative compounds.
(§2) Minimum Inhibitory Concentration (μg/ml; 10^6 CFU/ml)

[2] = test system: E. coli W3630/Rms213; details: 10^6 CFU/ml; for MIC: Escherichia coli, W3630/RMS213, read-out: Minimum Inhibitory Concentration, E. coli W3630/Rms213
Experimental: as §1, §2

[3] = test system: E. cloaceae Nek 39; details: E. cloaceae Nek 39, 10^6 CFU/ml; for MIC: read-out: Minimum Inhibitory Concentration
Experimental: as §1, §2

[4] = test system: P. vulgaris No. 33; details: P. vulgaris No. 33, 10^6 CFU/ml; for MIC: Proteus vulgaris, read-out: Minimum Inhibitory Concentration
Experimental: as §1, §2

[5] = test system: E. coli NIHJJC-2; details: 10^6 CFU/ml; for MIC: Escherichia coli, NIHJJC2, E. coli NIHJJC-2, read-out: Minimum Inhibitory Concentration
Experimental: as §1, §2

[6] = test system: P. aeruginosa AK109; details: 10^6 CFU/ml; for Minimum Inhibitory Concentration: P. aeruginosa AK109; for MIC: Pseudomonas aeruginosa, AK109, P. aeruginosa AK109, read-out: Minimum Inhibitory Concentration
Experimental: as §1, §2

[7] = test system: C. freundii No. 7; details: C. freundii No. 7, 10^6 CFU/ml; for MIC: Citrobacter freundii, read-out: Minimum Inhibitory Concentration
Experimental: as §1, §2

[8] = test system: P. aeruginosa AKR17; details: 10^6 CFU/ml; for MIC: Pseudomonas aeruginosa, AKR17, P. aeruginosa AKR17, read-out: Minimum Inhibitory Concentration
Experimental: as §1, §2

[9] = test system: E. coli C/Rms149; details: 10^6 CFU/ml; for MIC: Escherichia coli, read-out: Minimum Inhibitory Concentration, E. coli C/Rms149
Experimental: as §1, §2

[10] = test system: P. mirabilis JY10; details: P. mirabilis JY10, 10^6 CFU/ml; for MIC: Proteus mirabilis, read-out: Minimum Inhibitory Concentration
Experimental: as §1, §2

[11] = test system: E. coli ML1410/Rte16; details: 10^6 CFU/ml; for MIC: Escherichia coli, ML1410/RTE16, read-out: Minimum Inhibitory Concentration, E. coli ML1410/Rte16
Experimental: as §1, §2

[12] = test system: S. marcescens No. 16-2; details: S. marcescens No. 16-2, 10^6 CFU/ml; for MIC: Serratia marcescens, NO.162, read-out: Minimum Inhibitory Concentration
Experimental: as §1, §2

[13] = test system: P. vulgaris OB1043; details: 10^6 CFU/ml; for MIC: Proteus vulgaris, OB1043, P. vulgaris OB1043, read-out: Minimum Inhibitory Concentration
Experimental: as §1, §2

[14] = test system: E. coli CSH2; details: 10^6 CFU/ml; for MIC: Escherichia coli, read-out: Minimum Inhibitory Concentration
Experimental: as §1, §2

[15] = test system: A. calcoaceticus No. 14; details: 10^6 CFU/ml; for MIC: Acinetobacter calcoaceticus, NO.14, A. calcoaceticus No. 14, read-out: Minimum Inhibitory Concentration
Experimental: as §1, §2

[16] = test system: E. coli W3630/Rms212; details: 10^6 CFU/ml; for MIC: Escherichia coli, W3630/RMS212, read-out: Minimum Inhibitory Concentration, E. coli W3630/Rms212
Experimental: as §1, §2

[17] = test system: P. cepacia 23; details: P. cepacia 23, 10^6 CFU/ml; for MIC: Burkholderia cepacia, read-out: Minimum Inhibitory Concentration
Experimental: as §1, §2

[18] = test system: K. pneumoniae No. 42; details: K. pneumoniae No. 42, 10^6 CFU/ml; for MIC: Klebsiella pneumoniae, read-out: Minimum Inhibitory Concentration
Experimental: as §1, §2

[19] = test system: S. aureus NIHJJC-1; details: for MIC: Staphylococcus aureus
Experimental: as §1, §2

[20] = test system: S. aureus JS-1; details: S. aureus JS-1, 10^6 CFU/ml; for MIC: Staphylococcus aureus, JS1, read-out: Minimum Inhibitory Concentration
Experimental: as §1, §2

[21] = test system: P. maltophilia IID 1275; details: Stenotrophomonas maltophilia, IID1275; P. maltophilia IID 1275; 10^6 CFU/ml; read-out: Minimum Inhibitory Concentration
Experimental: as §1, §2

[22] = NIHJJC1, S. aureus NIHJJC-1, 10^6 CFU/ml, read-out: Minimum Inhibitory Concentration

Row | Structure (SMILES) | MIC [1] [µg/mL] | MIC [2] [µg/mL] | MIC [3] [µg/mL] | MIC [4] [µg/mL] | MIC [5] [µg/mL] | MIC [7] [µg/mL] | MIC [8] [µg/mL] | MIC [9] [µg/mL] | MIC [10] [µg/mL] | MIC [11] [µg/mL] | MIC [12] [µg/mL] | MIC [13] [µg/mL] | MIC [14] [µg/mL] | MIC [15] [µg/mL] | MIC [16] [µg/mL] | MIC [17] [µg/mL] | MIC [18] [µg/mL] | MIC [19, 22] [µg/mL] | MIC [20] [µg/mL] | MIC [6] [µg/mL] | further results
1 | CC(C)(O/N=C(\C(=O)NC1C(=O)N2C(C(=O)[O-])=C(C[N+]3(C)CCc4ccccc4C3)CSC12)c1csc(N)n1)C(=O)O (single isomer, unassigned) [Isomer A of Ex. 8-E, 7-[(Z)-2-(2-aminothiazol-4-yl)-2-(1-carboxy-1-methylethoxyimino)acetamido]-3-(2-methyl-1,2,3,4-tetrahydro-2-isoquinolinium)methyl-3-cephem-4-carboxylate] | 0.1 (≈ 0.163 µM) | 0.39 (≈ 0.634 µM) | 1.56 (≈ 2.54 µM) | 0.1 (≈ 0.163 µM) | 0.2 (≈ 0.325 µM) | 1.56 (≈ 2.54 µM) | 25 (≈ 40.7 µM) | 0.2 (≈ 0.325 µM) | 0.2 (≈ 0.325 µM) | 0.2 (≈ 0.325 µM) | 3.12 (≈ 5.08 µM) | 0.1 (≈ 0.163 µM) | 0.1 (≈ 0.163 µM) | 25 (≈ 40.7 µM) | 0.39 (≈ 0.634 µM) | 6.25 (≈ 10.2 µM) | 0.78 (≈ 1.27 µM) | 6.25 (≈ 10.2 µM) | > 25 | – | Minimum Inhibitory Concentration [6]: 6.25 µg/mL
2 | CC(C)(O/N=C(\C(=O)NC1C(=O)N2C(C(=O)[O-])=C(C[N+]3(C)CCc4ccccc4C3)CSC12)c1csc(N)n1)C(=O)O (single isomer, unassigned) [Isomer B of Ex. 8-E, 7-[(Z)-2-(2-aminothiazol-4-yl)-2-(1-carboxy-1-methylethoxyimino)acetamido]-3-(2-methyl-1,2,3,4-tetrahydro-2-isoquinolinium)methyl-3-cephem-4-carboxylate] | – | – | – | – | – | – | – | – | – | – | – | – | – | – | – | – | – | – | – | – | Minimum Inhibitory Concentration [1]: 0.2 µg/mL; Minimum Inhibitory Concentration ([2]; E. coli W3630/Rms213): 0.78 µg/mL; Minimum Inhibitory Concentration [3]: 3.12 µg/mL; Minimum Inhibitory Concentration [4]: 0.1 µg/mL; Minimum Inhibitory Concentration ([5]; E. coli NIHJJC-2): 0.39 µg/mL; Minimum Inhibitory Concentration [6]: 3.12 µg/mL; Minimum Inhibitory Concentration [7]: 1.56 µg/mL; Minimum Inhibitory Concentration ([8]; P. aeruginosa AKR17): > 25 µg/mL; Minimum Inhibitory Concentration ([9]; E. coli C/Rms149): 0.39 µg/mL; Minimum Inhibitory Concentration [10]: 0.2 µg/mL; Minimum Inhibitory Concentration ([11]; E. coli ML1410/Rte16): 0.39 µg/mL; Minimum Inhibitory Concentration [12]: 3.12 µg/mL; Minimum Inhibitory Concentration ([13]; P. vulgaris OB1043): 0.2 µg/mL; Minimum Inhibitory Concentration [14]: 0.1 µg/mL; Minimum Inhibitory Concentration ([15]; A. calcoaceticus No. 14): > 25 µg/mL; Minimum Inhibitory Concentration ([16]; E. coli W3630/Rms212): 0.78 µg/mL; Minimum Inhibitory Concentration [17]: 6.25 µg/mL; Minimum Inhibitory Concentration [18]: 0.78 µg/mL; Minimum Inhibitory Concentration ([19]; S. aureus NIHJJC-1, 10^6 CFU/ml): 12.5 µg/mL; Minimum Inhibitory Concentration [20]: > 25 µg/mL
3 | CO/N=C(\C(=O)NC1C(=O)N2C(C(=O)[O-])=C(C[N+]3(C)CCc4ccccc4C3)CSC12)c1csc(N)n1 (stereo not shown) [Ex. 1-B, 7-[(Z)-2-(2-aminothiazol-4-yl)-2-methoxyiminoacetamido]-3-(2-methyl-1,2,3,4-tetrahydro-2-isoquinolinium)methyl-3-cephem-4-carboxylate] | 0.2 (≈ 0.369 µM) | 1.56 (≈ 2.87 µM) | 1.56 (≈ 2.87 µM) | 0.2 (≈ 0.369 µM) | 0.1 (≈ 0.184 µM) | 1.56 (≈ 2.87 µM) | > 25 | 0.1 (≈ 0.184 µM) | 0.78 (≈ 1.44 µM) | – | 6.25 (≈ 11.5 µM) | 0.78 (≈ 1.44 µM) | 0.05 (≈ 0.0921 µM) | 25 (≈ 46.1 µM) | 0.2 (≈ 0.369 µM) | – | 0.2 (≈ 0.369 µM) | 0.78 (≈ 1.44 µM) | 3.12 (≈ 5.75 µM) | 6.25 (≈ 11.5 µM) | –
4 | CO/N=C(\C(=O)NC1C(=O)N2C(C(=O)[O-])=C(C[N+]3(C)CCc4cc(OC)c(OC)cc4C3)CSC12)c1csc(N)n1 (stereo not shown) [Ex. 2-E, 7-[(Z)-2-(2-aminothiazol-4-yl)-2-methoxyiminoacetamido]-3-(6,7-dimethoxy-2-methyl-1,2,3,4-tetrahydro-2-isoquinolinium)methyl-3-cephem-4-carboxylate] | 1.56 (≈ 2.59 µM) | 3.12 (≈ 5.18 µM) | 12.5 (≈ 20.7 µM) | 1.56 (≈ 2.59 µM) | 0.78 (≈ 1.29 µM) | 12.5 (≈ 20.7 µM) | > 25 | 0.78 (≈ 1.29 µM) | 3.12 (≈ 5.18 µM) | 0.78 (≈ 1.29 µM) | > 25 | 3.12 (≈ 5.18 µM) | 0.2 (≈ 0.332 µM) | > 25 | 1.56 (≈ 2.59 µM) | – | 1.56 (≈ 2.59 µM) | – | 12.5 (≈ 20.7 µM) | 25 (≈ 41.5 µM) | MIC ([19]; NIHJJC1, read-out: Minimum Inhibitory Concentration): 1.56 µg/mL (≈ 2.59 µM)
5 | CCO/N=C(\C(=O)NC1C(=O)N2C(C(=O)[O-])=C(C[N+]3(C)CCc4ccccc4C3)CSC12)c1csc(N)n1 (stereo not shown) [Ex. 7-D, 7-[(Z)-2-(2-aminothiazol-4-yl)-2-ethoxyiminoacetamido]-3-(2-methyl-1,2,3,4-tetrahydro-2-isoquinolinium)methyl-3-cephem-4-carboxylate] | 0.2 (≈ 0.359 µM) | 0.78 (≈ 1.4 µM) | 3.12 (≈ 5.6 µM) | 0.39 (≈ 0.701 µM) | 0.39 (≈ 0.701 µM) | 3.12 (≈ 5.6 µM) | > 25 | 0.39 (≈ 0.701 µM) | 3.12 (≈ 5.6 µM) | 0.39 (≈ 0.701 µM) | 6.25 (≈ 11.2 µM) | 0.78 (≈ 1.4 µM) | 0.1 (≈ 0.18 µM) | 25 (≈ 44.9 µM) | 0.78 (≈ 1.4 µM) | 6.25 (≈ 11.2 µM) | 0.78 (≈ 1.4 µM) | 0.39 (≈ 0.701 µM) | 6.25 (≈ 11.2 µM) | 6.25 (≈ 11.2 µM) | –
6 | CO/N=C(\C(=O)NC1C(=O)N2C(C(=O)[O-])=C(C[N+]3(C)CCc4cc(OC(C)=O)ccc4C3)CSC12)c1csc(N)n1 (stereo not shown) [Ex. 9, 7-[(Z)-2-(2-aminothiazol-4-yl)-2-methoxyiminoacetamido]-3-(6-acetoxy-2-methyl-1,2,3,4-tetrahydro-2-isoquinolinium)methyl-3-cephem-4-carboxylate] | 1.56 (≈ 2.6 µM) | 3.12 (≈ 5.19 µM) | 1.56 (≈ 2.6 µM) | 0.39 (≈ 0.649 µM) | 0.2 (≈ 0.333 µM) | 6.25 (≈ 10.4 µM) | 25 (≈ 41.6 µM) | 0.2 (≈ 0.333 µM) | 1.56 (≈ 2.6 µM) | 0.2 (≈ 0.333 µM) | 12.5 (≈ 20.8 µM) | 0.78 (≈ 1.3 µM) | 0.1 (≈ 0.166 µM) | > 25 | 0.2 (≈ 0.333 µM) | 12.5 (≈ 20.8 µM) | 0.78 (≈ 1.3 µM) | 0.39 (≈ 0.649 µM) | 12.5 (≈ 20.8 µM) | 3.12 (≈ 5.19 µM) | MIC [21]: > 25 µg/mL
